We go through two molecules from PMC11350846, “Synthesis of Second-Generation Analogs of Temporin-SHa Peptide Having Broad-Spectrum Antibacterial and Anticancer Effects” (Antibiotics, 2024).

Data set [1] can be described thus: Circular dichroism, secondary structure (Bestsel). It counts as physicochemical. The conditions noted are these: CD in 20 mM SDS. On the procedure: Circular dichroism of temporin SHa, [G10a]-SHa and newly synthesised second-generation analogs of [G10a]-SHa in 20 mM SDS are shown in Figure 2. In lipidic environments mimicked by SDS, peptides adopt an alpha helical structure due to their amphipathic nature. This structural feature is important for their antimicrobial activity, allowing for their insertion into bacterial membranes. The hydrophobic region of the peptide interacts with the hydrophobic portion of the lipid while the hydrophilic region remains exposed to the aqueous environment. The percentage of alpha helix, as well as the percentage of other secondary structures, was determined from CD data using Bestsel software (https://bestsel.elte.hu/index.php, (accessed on 22 June 2024)) (Table 3). Temporin-SHa (1) adopted a 49.5% α-helical structure, while its first-generation analog [G10a]-SHa (2) acquired a 82.4% alpha helical structure. The 84.6%, 88.7%, 4.7%, and 53.8% alpha helical structures were acquired for second-generation analogs 3, 4, 5, and 6, respectively.
The far-ultraviolet CD spectra were obtained using a JASCO J-810 spectropolarimeter (Jasco, Tokyo, Japan). In addition to this, the quartz cuvette of 10 mm path length was used. The temperature was maintained at 22 °C, and the output of the instrument was calibrated using D-(+)-10-camphorsulfonic acid. The peptides, which were present at a concentration of 1.0 mg/mL, were dissolved completely in 20 mM SDS at a concentration of 15 µM [21]. The instrument was set to record wavelengths ranging from 190 to 260 nm with a bandwidth of 2 nm. Ten consecutive scans (accumulations) were recorded for each spectrum at a rate of 50 nm/min, and the baseline was acquired under the same conditions.

In data set [2] the test system is human cancer and normal/non-cancerous cells. It counts as cell-based. The conditions noted are these: tested human cells, up to 100 µM. How it is done: (§1) The antiproliferative activity of the peptides was evaluated, as previously described using human cancer cell lines (A549 (lung), A2780 (ovary), HepG-2 (liver), MCF-7 (breast), MiaPaCa-2 (pancreas), MNT-1 (skin), and PC-3 (prostate)) and normal human lung fibroblasts (IMR-90) or epithelial cells (BEAS-2B). The cells were cultured in DMEM supplemented with 10% FBS, 1% L-glutamine, and 1% antibiotics at 37 °C in a 5% CO2 incubator. For the antiproliferative assay, cells were seeded in 96-well plates at approximately 3000 cells/well. Twenty-four hours later, cells were treated with increasing concentrations of peptides (1:2 serial dilution from 100 µM to 0 µM) for 48 h. After treatment, the number of viable cells was determined using a resazurin-based assay, and the fluorescence intensity was measured with a microplate reader (Ex 530 nm/Em 590 nm). The IC50 values of the peptides (i.e., the concentrations causing 50% inhibition of cell proliferation) were determined using GraphPad® Prism 7 software. The experiments were performed in triplicate (n = 3). The cytotoxicity of the peptides was also evaluated using confluent/no-dividing cells, as previously described. Briefly, human cells were seeded onto 96-well plates at 20,000 cells/well. When they reached 80–90% confluence (after 24–48 h), cells were treated with escalating concentrations of peptides. After 48h incubation, cell viability was measured using a resazurin assay and CC50 (i.e., the concentrations causing 50% inhibition of cell viability) and determined using GraphPad® Prism 7 software. The experiments were performed in triplicate (n = 3).

Data set [3] has as its system Pancreatic Cancer (MiaPaCa-2). It counts as cell-based, human. As to conditions: 48 h. On the procedure: as §1
The test system of the next data set is Ovarian Cancer (A2780). It counts as cell-based, human. The conditions noted are these: 48 h. How it is done:
as §1

In data set [4] the test system is Normal Lung Epithelium (BEAS-2B). It counts as cell-based, human. As to conditions: 48 h. How it is done: as §1
The test system of data set [5] is Normal Lung Fibroblast (IMR-90). It counts as cell-based, human. The conditions noted are these: 48 h. On the procedure: as §1
Another data set concerns Breast Cancer (MCF-7). It counts as cell-based, human. The conditions noted are these: 48 h. How it is done:
as §1

The test system of a further data set is Skin Cancer (MNT-1). It counts as cell-based, human. As to conditions: 48 h. How it is done:
as §1

Another data set relates to Prostate Cancer (PC-3). It counts as cell-based, human. As to conditions: 48 h. How it is done:
as §1

The next data set deals with Liver Cancer (HepG-2). It counts as cell-based, human. The conditions noted are these: 48 h. On the procedure: as §1
The test system of the next data set is Lung Cancer (A549). It counts as cell-based, human. The conditions noted are these: 48 h. How it is done: as §1
Data set [6] relates to Gram-negative and Gram-positive bacterial strains. On the procedure:
(§2) The peptides were assessed for their antibacterial activity by determining the minimum inhibitory concentration (MIC) using the two-fold serial dilution method following the National Committee of Clinical Laboratory Standards, as previously described. Gram-negative (Acinetobacter baumannii (DSM 30007), Escherichia coli (ATCC 8739), Enterobacter cloacae (DSM 30054), Helicobacter pylori (ATCC 43504), Klebsiella pneumoniae (DSM 26371), Pseudomonas aeruginosa (ATCC 9027)) and Gram-positive bacteria (Bacillus subtilis (ATCC 6633), Enterococcus faecalis (DSM 2570), Enterococcus faecium (DSM 20477), Staphylococcus aureus (ATCC 6538)) were used for the antibacterial activity assays. In brief, 3 mL of Mueller–Hinton (MH) broth was inoculated with single clusters of the various bacterial strains and incubated overnight at 37 °C with agitation at 200 rpm. The next day, the bacterial solution was diluted with sterile MH by 1/100 and further incubated at 37 °C and 200 rpm until the bacteria reached the log phase growth (OD600nm around 0.6). The bacterial suspension was then adjusted to a density of approximately 10^5 bacteria/mL, and 100 μL was added per well of 96-well microplates (Greiner BioOne, Les Ulis, France), followed by exposure to increasing concentrations of peptides (from 0 to 100 µM, 1:2 dilution). Plates were then incubated at 37 °C for 18-24 h under either aerobic (for A. baumannii, E. cloacae, E. coli, P. aeruginosa, B. subtilis, and S. aureus) or micro-aerobic conditions generated using GasPak units (for E. faecalis, E. faecium and, H. pylori). […] The optical density (OD) at 600nm was measured using a microplate reader (Biotek, Synergy Mx, Les Ulis, France) after the final incubation. All experiments were performed in triplicate (n = 3).

A further data set relates to K. pneumonia (DSM 26371). As to conditions: K. pneumonia, from MIC. How it is done:
as §2

For another data set, the system named is E. faecalis (DSM 2570). As to conditions: Enterococcus faecalis DSM 2570, from MIC. On the procedure: as §2
For the next data set, the system named is E. coli (ATCC 8739). As to conditions: E. coli, from MIC. How it is done:
as §2

Another data set deals with E. cloacae (DSM 30054). On the procedure:
as §2

Another data set deals with A. baumannii (DSM 30007). As to conditions: A. baumannii, from MIC. How it is done: as §2
Data set [7] relates to P. aeruginosa (ATCC 9027). As to conditions: P. aeruginosa, from MIC. On the procedure: as §2
For another data set, the system named is E. faecium (DSM 20477). As to conditions: E. faecium, from MIC. How it is done:
as §2

Where a SMILES comes first, the peptide text is derived from it. [ ]: non-standard residue; d: D form. d2Nal = N[C@H](Cc1ccc2ccccc2c1)C(=O)O

What is called IC50 is the concentration needed to halve the response being measured. In data set [1], `CC[C@H](C)[C@H](NC(=O)CNC(=O)[C@H](CO)NC(=O)[C@H](CC(C)C)NC(=O)[C@@H](N)Cc1ccccc1)C(=O)N[C@H](C(=O)NCC(=O)N[C@@H](CCSC)C(=O)N[C@@H](CC(C)C)C(=O)N[C@H](Cc1ccc2ccccc2c1)C(=O)N[C@@H](CCCCN)C(=O)N[C@@H](CC(C)C)C(=O)N[C@@H](Cc1ccccc1)C(N)=O)C(C)C` [[G10n]-SHa (5), H-Phe^1-Leu^2-Ser^3-Gly^4-IIe^5-Val^6-Gly^7-Met^8-Leu^9-D-NAL^10-Lys^11-Leu^12-Phe^13-NH2] (H-FLSGIVGML[d2Nal]KLF-NH2) showed an Antiparallel of 34.10%. The “Helix (alpha helical structure)” value is listed as 4.70% in data set [1] and 4.7% in [1] (listed as 5). For the same molecule, the Others in data set [1] is 47.20%. The molecule further yielded a Parallel in data set [1] of 1.10%. Further, the Turn in [1] was determined as 12.90%. In addition, the “activity against the tested human cells” value in data set [2] was “inactive”. The IC50 (in [3]; in the data set on Ovarian Cancer (A2780); in data set [4]; in data set [5]; in the data set with Breast Cancer (MCF-7); in the data set with Skin Cancer (MNT-1)) was more than 100 µM throughout. The IC50 in the data set on Prostate Cancer (PC-3), in the data set on Liver Cancer (HepG-2) and with Lung Cancer (A549) was more than 100 µM in each case. Also, the “MIC values, range over strains” value in data set [6] is 50 to 100 µM.

On to `CC[C@H](C)[C@H](NC(=O)CNC(=O)[C@H](CO)NC(=O)[C@H](CC(C)C)NC(=O)[C@@H](N)Cc1ccccc1)C(=O)N[C@H](C(=O)NCC(=O)N[C@@H](CCSC)C(=O)N[C@@H](CC(C)C)C(=O)N[C@@H](CCCCN)C(=O)N[C@@H](CCCCN)C(=O)N[C@@H](CC(C)C)C(=O)N[C@@H](Cc1ccccc1)C(N)=O)C(C)C` [[G10K]-SHa (4), H-Phe^1-Leu^2-Ser^3-Gly^4-IIe^5-Val^6-Gly^7-Met^8-Leu^9-L-Lys^10-Lys^11-Leu^12-Phe^13-NH2] (H-FLSGIVGMLKKLF-NH2), for which the Antiparallel in data set [1] is recorded as 11.30%. Further, the “Helix (alpha helical structure)” value in data set [1] stood at 88.70%; in data set [1] (listed as 4) it was 88.7%. The same molecule yielded an Others in data set [1] of 0.00%. Further, in data set [1], the Parallel is reported as 0.00%. The same molecule yielded a Turn in data set [1] of 0.00%. In addition, the IC50 was 61.4 ± 4.1 µM in [3]; 21.8 ± 3.2 µM with Ovarian Cancer (A2780); more than 100 µM in [5]; 37.4 ± 11.8 µM in the data set on Breast Cancer (MCF-7); 21.7 ± 6.9 µM in the data set on Skin Cancer (MNT-1); 11.7 ± 1.2 µM in the data set on Prostate Cancer (PC-3). The IC50 in the data set with Liver Cancer (HepG-2) worked out at 64.3 ± 3.5 µM; in the data set with Lung Cancer (A549), 32.6 ± 2.4 µM. The “fold activity compared to [G10a]-SHa (2)” value is reported as “at least four times more active” with K. pneumonia (DSM 26371); “at least four times more active” in the data set on E. coli (ATCC 8739); “about eight times more active” in the data set with E. cloacae (DSM 30054) (E. cloacae, from MIC); “at least four times more active” in the data set on A. baumannii (DSM 30007); “at least four times more active” in data set [7]; “at least 16” in the data set on E. faecium (DSM 20477). Also, the “fold increase in activity relative to the parent peptide (1)” value in the data set with E. faecalis (DSM 2570) is reported as 4; with E. cloacae (DSM 30054) (Enterobacter cloacae DSM 30054, from MIC) it was 4.
